Calls of active or inactive are those of the source. The rule behind the calls is not given here.
Assays:
[1] = Toxicity in BALB/c mouse model of Sepsis infected with methicillin-resistant Staphylococcus aureus M11 assessed as lesions in heart at 4 to 8 mg/kg measured after 24 hrs by H and E staining based analysis; assay type: organism-based; details: in vivo, dose 4-8 mg/kg
[2] = tested on: Staphylococcus aureus; assay: Disruption of cell membrane in methicillin-resistant Staphylococcus aureus M11 assessed as fold increase in protein leakage at 4 ug/ml incubated for 4 hrs by micro-spectrophotometric analysis relative to control; assay type: functional; details: dose 4 µg/ml
[3] = Toxicity in BALB/c mouse model of Sepsis infected with methicillin-resistant Staphylococcus aureus M11 assessed as lesions in kidney at 4 to 8 mg/kg measured after 24 hrs by H and E staining based analysis; assay type: organism-based; details: in vivo, dose 4-8 mg/kg
[4] = tested on: Staphylococcus aureus; assay: Antibacterial activity against methicillin-resistant Staphylococcus aureus M11 up to 128 ug/ml in presence of 32 ug/ml peptidoglycan incubated for 16 to 18 hrs; assay type: functional; details: dose <= 128 µg/ml, time 16-18 hrs
[5] = tested on: Staphylococcus aureus; assay: Antibacterial activity against methicillin-resistant Staphylococcus aureus M11 infected in BALB/c mouse model of Sepsis assessed as reduction in bacterial load in skin tissues at 8 mg/kg measured after 24 hrs; assay type: functional
[6] = Toxicity in BALB/c mouse model of Sepsis infected with methicillin-resistant Staphylococcus aureus M11 assessed as pathological change in heart at 4 to 8 mg/kg measured after 24 hrs by H and E staining based analysis; assay type: organism-based; details: in vivo, dose 4-8 mg/kg
[7] = tested on: Staphylococcus aureus; assay: Antibacterial activity against methicillin-resistant Staphylococcus aureus M16 incubated for 16 to 20 hrs by broth microdilution method; assay type: functional; details: time 16-20 hrs
[8] = tested on: Staphylococcus aureus; assay: Antibacterial activity against methicillin-resistant Staphylococcus aureus M11 up to 128 ug/ml in presence of cardiolipin incubated for 16 to 18 hrs; assay type: functional, organism-based; details: dose <= 128.0 µg/ml, time 16-18 hrs
[9] = tested on: Staphylococcus aureus; assay: Disruption of cell membrane in methicillin-resistant Staphylococcus aureus M11 assessed as roughness in cell membrane at 4 ug/ml incubated for 4 hrs by SEM analysis; assay type: functional, organism-based; details: dose 4.0 µg/ml
[10] = tested on: Staphylococcus aureus; assay: Depolarization of cell membrane in methicillin-resistant Staphylococcus aureus M11 assessed as increase in fluorescence intensity incubated for 30 mins by DiSC3(5) dye based analysis; assay type: functional, organism-based
[11] = tested on: Staphylococcus aureus; assay: Antibacterial activity against methicillin-resistant Staphylococcus aureus M11 up to 128 ug/ml in presence of 128 ug/ml peptidoglycan incubated for 16 to 18 hrs; assay type: functional; details: dose <= 128 µg/ml, time 16-18 hrs
[12] = tested on: Staphylococcus aureus; assay: Disruption of cell membrane in methicillin-resistant Staphylococcus aureus M11 assessed as fold increase in DNA leakage at 4 ug/ml incubated for 4 hrs by micro-spectrophotometric analysis relative to control; assay type: functional; details: dose 4 µg/ml
[13] = tested on: Staphylococcus aureus; assay: Induction of cell permeability in methicillin-resistant Staphylococcus aureus M11 assessed as increase in fluorescence intensity by SYTOX Green dye based analysis; assay type: functional, organism-based
[14] = Hemolytic activity against sheep erythrocytes; assay type: toxicity, cell-based, Ovis aries, Erythrocyte
[15] = tested on: Staphylococcus aureus; assay: Antibacterial activity against methicillin-resistant Staphylococcus aureus M11 assessed as fold increase in MIC up to 128 ug/ml in presence of 128 ug/ml peptidoglycan incubated for 16 to 18 hrs relative to control; assay type: functional; details: dose <= 128 µg/ml; time 16-18 hrs
[16] = tested on: Staphylococcus aureus; assay: Antibacterial activity against methicillin-resistant Staphylococcus aureus M11 upto 128 ug/ml in presence of phosphatidylethanolamine incubated for 16 to 18 hrs; assay type: functional, organism-based; details: dose <= 128.0 µg/ml, time 16-18 hrs
[17] = tested on: Staphylococcus aureus; assay: Induction of bacterial eradication in methicillin-resistant Staphylococcus aureus M11 at 4 times MIC incubated for 8 hrs by time-kill assay; assay type: functional, organism-based
[18] = Toxicity in BALB/c mouse model of Sepsis infected with methicillin-resistant Staphylococcus aureus M11 assessed as pathological change in liver at 4 to 8 mg/kg measured after 24 hrs by H and E staining based analysis; assay type: organism-based; details: in vivo, dose 4-8 mg/kg
[19] = tested on: Staphylococcus aureus; assay: Antibacterial activity against methicillin-resistant Staphylococcus aureus M21 incubated for 16 to 20 hrs by broth microdilution method; assay type: functional; details: time 16-20 hrs
[20] = tested on: Staphylococcus aureus; assay: Disruption of cell membrane in methicillin-resistant Staphylococcus aureus M11 assessed as cell membrane rupture at 4 ug/ml incubated for 4 hrs by SEM analysis; assay type: functional, organism-based; details: dose 4.0 µg/ml
[21] = tested on: Staphylococcus aureus; assay: Induction of cell permeability in methicillin-resistant Staphylococcus aureus M11 assessed as fold increase in fluorescence intensity at 32 times MIC by SYTOX Green dye based analysis relative to control; assay type: functional
[22] = tested on: Staphylococcus aureus; assay: Disruption of cell membrane in methicillin-resistant Staphylococcus aureus M11 assessed as wrinkling in cell membrane at 4 ug/ml incubated for 4 hrs by SEM analysis; assay type: functional, organism-based; details: dose 4.0 µg/ml
[23] = tested on: Staphylococcus aureus; assay: Antibacterial activity against methicillin-resistant Staphylococcus aureus M11 infected in BALB/c mouse model of Sepsis assessed as reduction in bacterial count in skin tissues at 4 mg/kg measured after 24 hrs relative to control; assay type: functional; parameters: scale not given: the % may be the effect or the level left
[24] = tested on: Staphylococcus aureus; assay: Antibacterial activity against methicillin-resistant Staphylococcus aureus M23 incubated for 16 to 20 hrs by broth microdilution method; assay type: functional; details: time 16-20 hrs
[25] = Toxicity in BALB/c mouse assessed as maximum safe dose administered intraperitoneally measured for 7 days; details: in vivo, route ip, time 7 day
[26] = tested on: Staphylococcus aureus; assay: Antibacterial activity against methicillin-resistant Staphylococcus aureus M11 incubated for 16 to 20 hrs by broth microdilution method; assay type: functional; details: time 16-20 hrs
[27] = Toxicity in KM mouse assessed as animal death at 40 mg/kg, sc; assay type: organism-based; details: in vivo
[28] = tested on: Staphylococcus aureus; assay: Antibacterial activity against Staphylococcus aureus ATCC 29213 incubated for 16 to 20 hrs by broth microdilution method; assay type: functional; details: time 16-20 hrs
[29] = tested on: Staphylococcus aureus; assay: Antibacterial activity against methicillin-resistant Staphylococcus aureus M11 infected in BALB/c mouse model of Sepsis assessed as reduction in redness in inner epidermal abscesses at 4 mg/kg measured after 24 hrs; assay type: functional, organism-based
[30] = tested on: Staphylococcus aureus; assay: Antibacterial activity against methicillin-resistant Staphylococcus aureus M17 incubated for 16 to 20 hrs by broth microdilution method; assay type: functional; details: time 16-20 hrs
[31] = tested on: Staphylococcus aureus; assay: Antibacterial activity against methicillin-resistant Staphylococcus aureus M11 infected in BALB/c mouse model of Sepsis measured after 24 hrs; assay type: functional, organism-based; details: dose 4-8 mg/kg
[32] = Toxicity in BALB/c mouse assessed as adverse reactions at 5 to 40 mg/kg, ip measured for 7 days; assay type: organism-based; details: in vivo, 168 h, dose 5-40 mg/kg, time 7 day
[33] = Toxicity in BALB/c mouse model of Sepsis infected with methicillin-resistant Staphylococcus aureus M11 assessed as pathological change in kidney at 4 to 8 mg/kg measured after 24 hrs by H and E staining based analysis; assay type: organism-based; details: in vivo, dose 4-8 mg/kg
[34] = tested on: Staphylococcus aureus; assay: Antibacterial activity against methicillin-resistant Staphylococcus aureus M11 infected in BALB/c mouse model of Sepsis assessed as reduction in bacterial load in skin tissues at 4 mg/kg measured after 24 hrs; assay type: functional
[35] = tested on: Staphylococcus aureus; assay: Induction of resistance development in Staphylococcus aureus ATCC 29213 at 0.5 times MIC measured after 20 passages by broth microdilution method; assay type: functional, organism-based
[36] = tested on: Staphylococcus aureus; assay: Antibacterial activity against methicillin-resistant Staphylococcus aureus M11 up to 128 ug/ml in presence of 32 ug/ml cardiolipin incubated for 16 to 18 hrs; assay type: functional; details: dose <= 128 µg/ml, time 16-18 hrs
[37] = tested on: Staphylococcus aureus; assay: Induction of ROS production in methicillin-resistant Staphylococcus aureus M11 incubated for 1 hr by DCFH-DA probe based analysis; assay type: functional, organism-based; details: dose <= 32.0 µg/ml
[38] = tested on: Escherichia coli; assay: Antibacterial activity against Escherichia coli ATCC 25922 incubated for 16 to 20 hrs by broth microdilution method; assay type: functional; details: time 16-20 hrs

Compound: CC(C)=CCc1c(OCCCCSc2cc[n+](CC(=O)N(CC(C)C)CC(C)C)cc2)ccc2ccc(=O)oc12.[Br-]
- Activity [1]: Non-toxic
- fold change (FC) [2]: ~4
- Activity [3]: Non-toxic
- MIC [4]: 1 µg/mL
- Activity [5]: 4.252 log10CFU/g
- Activity [6]: Non-toxic
- MIC [7]: 0.5 µg/mL
- Activity [8]: Active; Compound Showed Only Minor Or No Change In Mic
- Activity [9]: Active
- Activity [10]: Dose-dependent-effect; Activity Was Observed Higher Than Melittin
- MIC [11]: 16 µg/mL
- fold change (FC) [12]: ~2
- Activity [13]: Dose-dependent-effect
- HC50 [14]: > 160 µg/mL
- fold change (FC) [15]: 32
- Activity [16]: Active; Compound Showed Only Minor Or No Change In Mic
- Activity [17]: Active
- Activity [18]: Non-toxic
- MIC [19]: 0.5 µg/mL
- Activity [20]: Active
- fold change (FC) [21]: ~10
- Activity [22]: Active
- Activity [23]: 98.886%
- MIC [24]: 0.5 µg/mL
- MTD at 168 h [25]: 30 mg/kg
- MIC [26]: 0.5 µg/mL
- Activity [27]: Non-toxic
- MIC [28]: 0.5 µg/mL
- Activity [29]: Active
- MIC [30]: 0.5 µg/mL
- Activity [31]: Dose-dependent-effect
- Activity [32]: Non-toxic
- Activity [33]: Non-toxic
- Activity [34]: 1.948 log10CFU/g
- Activity [35]: inactive
- MIC [36]: 1 µg/mL
- Activity [37]: Dose-dependent-effect
- MIC [38]: > 128 µg/mL

Compound: CCCCCNC(=O)C[n+]1ccc(SCCCCCOc2ccc3ccc(=O)oc3c2CC=C(C)C)cc1.[Br-]
- Activity [1]: Non-toxic
- fold change (FC) [2]: ~4
- Activity [3]: Non-toxic
- MIC [4]: 1 µg/mL
- Activity [5]: 3.828 log10CFU/g
- Activity [6]: Non-toxic
- MIC [7]: 0.5 µg/mL
- Activity [8]: Active; Compound Showed Only Minor Or No Change In Mic
- Activity [9]: Active
- Activity [10]: Dose-dependent-effect; Activity Was Observed Higher Than Melittin
- MIC [11]: 16 µg/mL
- fold change (FC) [12]: ~2
- Activity [13]: Dose-dependent-effect
- HC50 [14]: > 160 µg/mL
- fold change (FC) [15]: 32
- Activity [16]: Active; Compound Showed Only Minor Or No Change In Mic
- Activity [17]: Active
- Activity [18]: Non-toxic
- MIC [19]: 0.5 µg/mL
- Activity [20]: Active
- fold change (FC) [21]: ~10
- Activity [22]: Active
- Activity [23]: 98.702%
- MIC [24]: 0.5 µg/mL
- MTD at 168 h [25]: 10 mg/kg
- MIC [26]: 0.5 µg/mL
- Activity [27]: Non-toxic
- MIC [28]: 1 µg/mL
- Activity [29]: Active
- MIC [30]: 0.5 µg/mL
- Activity [31]: Dose-dependent-effect
- Activity [32]: Non-toxic
- Activity [33]: Non-toxic
- Activity [34]: 1.882 log10CFU/g
- Activity [35]: inactive
- MIC [36]: 1 µg/mL
- Activity [37]: Dose-dependent-effect
- MIC [38]: > 128 µg/mL
